Reference: patent US20180169045A1, “AMINO ACID COMPOSITIONS AND METHODS FOR THE TREATMENT OF LIVER DISEASES” (AXCELLA HEALTH INC., priority 2016, published 2018)

Tests used:
[1] = test system: Primary human hepatic stellate cells; assay: TGFβ1-induced procollagen Iα1 secretion in primary human hepatic stellate cells (ELISA); type: cell-based; conditions: for procollagen Iα1 secretion, in words: primary human hepatic stellate cells from three donors, 3 ng/mL TGFβ1, 24 h
Description: Primary human hepatic stellate cells were obtained from Samsara Sciences based on the following criteria for selecting donors: adult age (between 18 and 50 years), normal BMI (>18.5 and <25), and absence of confounding liver disease. Cells grown in Complete HSC Medium to ˜80% confluence in T75 or T150 flasks below passage 10 were seeded into sterile, collagen I coated, 96-well optical plastic microplates (ThermoScientific, 152036) at 6000 cells per well ([…]) and incubated overnight at 37° C., 5% CO2 in a humidified incubator in DMEM with 2% Fetal Bovine Serum and 1% Antibiotic-Antimycotic.
After the overnight incubation, plates were removed from the incubator and the medium was gently pipetted off and washed twice with 150 μL per well DPBS. The DPBS was removed and the pretreatment medium (±single amino acid dropout, 1×HMDB DMEM+1% Antibiotic-Antimycotic, 10 mM HEPES, ±supplemental amino acid dose; see experiment for medium composition) was applied to the cells at 150 μL per well. Plates were returned to the incubator for 10.5 hours.
After 10.5 hour pretreatment, the medium was removed from the cells, and the same pretreatment medium, now supplemented with 3 ng/mL TGFβ1, was applied. Each plate contained 3 ng/mL TGFβ1 in 1× human plasma amino acid (HMDB or PAA) concentration medium, 0 ng/mL in 1×HMDB, and 3 ng/mL TGFβ1+20 μM Silybin in 1×HMDB to serve as controls. Plates were then incubated for 24 hours at 37° C., 5% CO2.
After 24 hour stimulus, supernatant was removed and frozen at −80° C. in two separate aliquots. The cells were then washed with 125 μL per well Buffer FCW (FastLane Cell Multiplex NR Kit, Qiagen, 216713). The wash buffer was immediately removed and 50 μL of Cell Processing Mix (containing genomic DNA Wipeout buffer) was applied to lyse cells, incubating for 10 minutes at room temperature. RNA lysate was then transferred to 96-well qPCR plates, sealed, and gDNA was digested on thermal cycler at 75° C. for 5 minutes. RNA lysate was frozen at −80° C.
Human Procollagen Iα1 was measured from the supernatant by ELISA (Human Pro-Collagen I alpha 1 DuoSet ELISA, R&D Systems) at 1/100 dilution in 1× Reagent Diluent (Reagent Ancillary Kit 2, R&D Systems).

[2] = test system: Primary human PMBC derived macrophages; assay: LPS-induced TNFa secretion in primary human monocyte-derived macrophages (ELISA); type: cell-based; set-up: TNFa Measurements Mean (baseline subtracted): unit not given beside the values; conditions: for LPS-induced TNFa secretion, in words: primary human monocyte-derived macrophages
Description: Isolation of Peripheral Blood Mononuclear Cell (PBMC) Unpurified buffy coats (Research Blood Components) were carefully poured into 50 mL centrifuge tubes and diluted with room temperature Dulbecco's Phosphate Buffered Saline (dPBS) with Calcium and Magnesium (Gibco). Diluted buffy coats were further divided into four total 50 mL centrifuge tubes at 20 mL per tube. Lymphocyte Separation Medium (Corning) was carefully pipetted to the bottom of each centrifuge tube. Mixtures were centrifuged at 850×g for 32 minutes at 20° C. with 0 deceleration and acceleration.
CD14+ cells were selected using EasySep™ Human CD14 Positive Selection Kit II ([…] Technologies). Cells were resuspended in cold EasySep™ Buffer ([…] Technologies) at 1×10^8 cells/mL. A total of 100 uL/mL EasySep™ Human CD14 Positive Selection Cocktail II was added to the cell suspension, mixed, and incubated at room temperature for 10 minutes. A total of 100 uL/mL RapidSpheres were added to the mixture and incubated at room temperature for 3 minutes after mixing, then RoboSep buffer was added to bring up the total volume to 10 mL. The mixture in a 15 mL tube was placed in magnet and incubated at room temperature for 3 minutes. Supernatant was discarded and 10 mL fresh EasySep™ buffer was added to 15 mL tube. The addition of RoboSep buffer, mixing, and discarding of supernatant was repeated two more times.
Negative and positive fractions were centrifuged at 490×g for 5 minutes at 20° C. with acceleration of 9, deceleration of 9, and resuspended in DMEM (Gibco) and 10% Heat Inactivated Fetal Bovine Serum (Atlanta Bio) and Penicillin/Streptomycin. Cells were counted and centrifuged again at 490×g for 5 minutes at 20° C. with acceleration of 9, deceleration of 9. After centrifugation, cell were resuspended in DMEM (Gibco) and 10% Heat Inactivated Fetal Bovine Serum (Atlanta Bio) and Penicillin/Streptomycin containing 500 U/mL […] and plated at 1-2×10^6 cells/mL on 10 cm tissue culture plates. Cells were kept in 37° C., 5% CO2 in between feedings/harvest.
Cells were fed every 3-4 days by removing media and unattached cells, centrifuging at 490×g for 5 minutes at 20 C with acceleration of 9, deceleration of 9, and resuspending in fresh DMEM (Gibco) and 10% Heat Inactivated Fetal Bovine Serum (Atlanta Bio) and Penicillin/Streptomycincontaining 500 U/mL GM-CSF. Resuspended cells were seeded back onto 10 cm tissue culture plates and incubated at 37° C., 5% CO2.
After complete cell attachment, culture supernatant was removed and cultures were washed 1× with 5 mL PBS. A total of 3 mL room temperature Cellstripper was added and cultures were incubated at 37° C., 5% CO2 for approximately 10 minutes until cells were rounded and beginning to detach. Cell scraper was used to completely detach cells from plate. Collected cell were spun down at 490 g for 5 min at room temperature and resuspended in 10% DMSO in Heat Inactivated Fetal Bovine Serum and immediately frozen in −80 C.
Primary human PMBC derived macrophages were seeded on day 0 at 3.0E4 cells per well in 96-well microplates (ThermoFisher) in Dulbecco's Modified Eagle Medium (DMEM) (Gibco) supplemented with penicillin-streptomycin (Hyclone) and 10% heat inactivated fetal bovine serum (HI-FBS) (Atlanta Bio) and incubated overnight at 37° C., 5% CO2. On day 1, cells were washed once with 150 uL per well DPBS (Gibco) and treated with 75 uL of: • a. Amino acid free DMEM (US Biologicals) containing a defined custom amino acid concentration based on the mean physiological concentrations in blood based on values published in the Human Metabolome Database (HMDB), with 6 mM glucose, 1 mM sodium pyruvate, 10 mM HEPES, 0.2% primocin (InVivoGen); or • b. The same medium described above with one amino acid at various concentrations including complete dropout. […]

SMILES: CC(=O)N[C@@H](CS)C(=O)O [N-acetylcysteine]
- procollagen Iα1 secretion, in words [1]: significantly decrease procollagen Iα1 secretion in two of the three donors
- TNFa Measurements Mean (baseline subtracted) ([2]; Donor 1, Conc. 0 X (baseline), LPS 0.15 ng/mL): 0
- LPS-induced TNFa secretion, in words ([2]; Donor 1, 0.15 ng/mL LPS): significantly reduced
- LPS-induced TNFa secretion, in words ([2]; Donor 2, 0.15 ng/mL LPS): significantly reduced
- LPS-induced TNFa secretion, in words ([2]; Donor 3, 0.15 ng/mL LPS): significantly reduced

SMILES: N=C(N)NCCC[C@H](N)C(=O)O [Arginine, L-Arginine]
- Procollagen Iα1 Secretion (Fold Change of 1X), Mean ([1]; first donor, Conc. 109 μM (baseline)): 1.0000 fold
- procollagen Iα1 secretion, in words [1]: significantly increased procollagen Iα1 secretion in two of three donors
- Procollagen Iα1 Secretion (Fold Change of 1X), Mean ([1]; second donor, Conc. 109 μM (baseline)): 1.0000 fold
- Procollagen Iα1 Secretion (Fold Change of 1X), Mean ([1]; third donor, Conc. 109 μM (baseline)): 1.0000 fold
- TNFa Measurements Mean (baseline subtracted) ([2]; Donor 1, Conc. 109 μM (baseline), LPS 0.15 ng/mL): 0

SMILES: CC[C@H](C)[C@H](N)C(=O)O [Isoleucine, L-Isoleucine]
- procollagen Iα1 secretion, in words [1]: significantly increased procollagen Iα1 secretion in two of three donors
- Procollagen Iα1 Secretion (Fold Change of 1X), Mean ([1]; second donor, Conc. 66 μM (baseline)): 1.0000 fold
- Procollagen Iα1 Secretion (Fold Change of 1X), Mean ([1]; third donor, Conc. 66 μM (baseline)): 1.0000 fold
- TNFa Measurements Mean (baseline subtracted) ([2]; Donor 1, Conc. 66 μM (baseline), LPS 0.15 ng/mL): 0
- LPS-induced TNFa secretion, in words ([2]; Donor 2, 0.15 ng/mL LPS): increased

SMILES: CC(C)C[C@H](N)C(=O)O [Leucine, L-Leucine]
- Procollagen Iα1 Secretion (Fold Change of 1X), Mean ([1]; first donor, Conc. 153 μM (baseline)): 1.0000 fold
- Procollagen Iα1 Secretion (Fold Change of 1X), Mean ([1]; second donor, Conc. 153 μM (baseline)): 1.0000 fold
- Procollagen Iα1 Secretion (Fold Change of 1X), Mean ([1]; third donor, Conc. 153 μM (baseline)): 1.0000 fold
- TNFa Measurements Mean (baseline subtracted) ([2]; Donor 2, Conc. 153 μM (baseline), LPS 0.15 ng/mL): 0
- LPS-induced TNFa secretion, in words ([2]; Donor 2, 0.15 ng/mL LPS): increased

SMILES: NC(=O)CC[C@H](N)C(=O)O [Glutamine, L-Glutamine]
- Procollagen Iα1 Secretion (Fold Change of 1X), Mean ([1]; first donor, Conc. 562 μM (baseline)): 1.0000 fold
- procollagen Iα1 secretion, in words [1]: did not have a significant impact
- Procollagen Iα1 Secretion (Fold Change of 1X), Mean ([1]; second donor, Conc. 562 μM (baseline)): 1.0000 fold
- Procollagen Iα1 Secretion (Fold Change of 1X), Mean ([1]; third donor, Conc. 562 μM (baseline)): 1.0000 fold
- TNFa Measurements Mean (baseline subtracted) ([2]; Donor 3, Conc. 749 μM (baseline)): 0
- LPS-induced TNFa secretion, in words ([2]; Donor 2, 0.15 ng/mL LPS): increased
- LPS-induced TNFa secretion, in words ([2]; Donor 3, 0.15 ng/mL LPS): increased

SMILES: CC(C)[C@H](N)C(=O)O [Valine, L-Valine]
- Procollagen Iα1 Secretion (Fold Change of 1X), Mean ([1]; first donor, Conc. 234 μM (baseline)): 1.0000 fold
- procollagen Iα1 secretion, in words [1]: significantly increased procollagen Iα1 secretion in only one of two donors
- Procollagen Iα1 Secretion (Fold Change of 1X), Mean ([1]; second donor, Conc. 234 μM (baseline)): 1.0000 fold
- Procollagen Iα1 Secretion (Fold Change of 1X), Mean ([1]; third donor, Conc. 234 μM (baseline)): 1.0000 fold
- TNFa Measurements Mean (baseline subtracted) ([2]; Donor 1, Conc. 234 μM (baseline), LPS 0.15 ng/mL): 0
